According to PubChem BioAssay AID1963433 (Molecular Pharmacology Branch, DTP, NCI, 2024):
“And” between values parts separate entries of the source, which are not always exact repeats. Equal values may be shown once.

Tested on: 772245-204-R-J1-PDC complex spheroid growth
Assay: Anticancer human tumor 772245-204-R-J1-PDC patient-derived rhabdomyosarcoma cell line growth inhibition [Asc]
Details: for viability, T/C: stronger effect = lower value
How it was run: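 Tumor cells were grown as multicellular spheroids with stromal HUVEC and mesenchymal stem cells and treated singly or in combination. Concentrations fell in half-log steps from the clinical Cmax, or from 10 microM where none was known.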
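Further: compound exposure lasted seven days.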
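Wherever viability, T/C is given: 100% = DMSO vehicle control viability.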

## O=C(c1cc(Cc2n[nH]c(=O)c3ccccc23)ccc1F)N1CCN(C(=O)C2CC2)CC1
Compound 0.0316 µM
  viability, T/C: 84.8% and 122% and 103%
Compound 0.1 µM
  viability, T/C: 109% and 93.1% and 107%
Compound 0.316 µM
  viability, T/C: 92.4% and 70.8% and 81.9%
Compound 1 µM
  viability, T/C: 79.6% and 91.7% and 83.5%
Compound 3.16 µM
  viability, T/C: 80.8% and 88.8% and 89.9%
Compound 10 µM
  viability, T/C: 59.2% and 60% and 83.6%
Curve of compound
  IC50: > 10000 nM

## NC1CCC(NC2CC2c2ccccc2)CC1 (configuration not stated) + CNC(C)C(=O)NC1CN(S(=O)(=O)c2cccc(S(=O)(=O)N3CCC4CCC(C(=O)NC(c5ccccc5)c5ccccc5)N4C(=O)C(NC(=O)C(C)NC)C3)c2)CCC2CCC(C(=O)NC(c3ccccc3)c3ccccc3)N2C1=O
Curve of first compound, second compound 0.01 µM
  IC50: > 100 nM
Curve of first compound, second compound 0.0316 µM
  IC50: > 100 nM
Curve of first compound, second compound 0.1 µM
  IC50: > 100 nM
Curve of first compound, second compound 0.316 µM
  IC50: > 100 nM
Curve of first compound, second compound 1 µM
  IC50: > 100 nM
Second compound 0.01 µM, first compound 0.000316 µM
  viability, T/C: 111%
Second compound 0.01 µM, first compound 0.001 µM
  viability, T/C: 104%
Second compound 0.01 µM, first compound 0.00316 µM
  viability, T/C: 91.6%
Second compound 0.01 µM, first compound 0.01 µM
  viability, T/C: 105%
Second compound 0.01 µM, first compound 0.0316 µM
  viability, T/C: 98.5%
Second compound 0.01 µM, first compound 0.1 µM
  viability, T/C: 89.5%
Second compound 0.0316 µM, first compound 0.000316 µM
  viability, T/C: 85.7%
Second compound 0.0316 µM, first compound 0.001 µM
  viability, T/C: 91.9%
Second compound 0.0316 µM, first compound 0.00316 µM
  viability, T/C: 88.5%
Second compound 0.0316 µM, first compound 0.01 µM
  viability, T/C: 94.8%
Second compound 0.0316 µM, first compound 0.0316 µM
  viability, T/C: 90.7%
Second compound 0.0316 µM, first compound 0.1 µM
  viability, T/C: 88%
Second compound 0.1 µM, first compound 0.000316 µM
  viability, T/C: 92%
Second compound 0.1 µM, first compound 0.001 µM
  viability, T/C: 103%
Second compound 0.1 µM, first compound 0.00316 µM
  viability, T/C: 87.5%
Second compound 0.1 µM, first compound 0.01 µM
  viability, T/C: 88.4%
Second compound 0.1 µM, first compound 0.0316 µM
  viability, T/C: 90.9%
Second compound 0.1 µM, first compound 0.1 µM
  viability, T/C: 82.2%
Second compound 0.316 µM, first compound 0.000316 µM
  viability, T/C: 97.1%
Second compound 0.316 µM, first compound 0.001 µM
  viability, T/C: 90.1%
Second compound 0.316 µM, first compound 0.00316 µM
  viability, T/C: 102%
Second compound 0.316 µM, first compound 0.01 µM
  viability, T/C: 86.9%
Second compound 0.316 µM, first compound 0.0316 µM
  viability, T/C: 88.3%
Second compound 0.316 µM, first compound 0.1 µM
  viability, T/C: 98.7%
Second compound 1 µM, first compound 0.000316 µM
  viability, T/C: 100%
Second compound 1 µM, first compound 0.001 µM
  viability, T/C: 88.1%
Second compound 1 µM, first compound 0.00316 µM
  viability, T/C: 92.9%
Second compound 1 µM, first compound 0.01 µM
  viability, T/C: 86.6%
Second compound 1 µM, first compound 0.0316 µM
  viability, T/C: 78.9%
Second compound 1 µM, first compound 0.1 µM
  viability, T/C: 91.2%
